pIC50: −log10 of the molar value.
Test system: anti-PCP antibody from ATCC HB 9198
Type: binding, rat
Details: for pIC50: read-out: Molar IC50

Oc1ccc(Cl)c(Cl)c1Cl [2,3,4-Trichlorophenol] was tested. Which “Percent Cross Reactivity With PCP” value did it give?
Its value is 0.5%.

With Oc1c(Cl)c(Cl)cc(Cl)c1Cl [2,3,5,6-Tetrachlorophenol] as the compound, how does the “Percent Cross Reactivity With PCP” value read?
The value was 42%.

Which “Percent Cross Reactivity With PCP” value does the source give for Oc1cc(Cl)cc(Cl)c1Cl [2,3,5-Trichlorophenol] here?
Its value is 0.5%.

Oc1c(Cl)ccc(Cl)c1Cl [2,3,6-Trichlorophenol] was tested. Which “Percent Cross Reactivity With PCP” value did it give?
The value was 8.8%.

Which “Percent Cross Reactivity With PCP” value does the source give for Oc1cccc(Cl)c1Cl [2,3-Dichlorophenol] here?
Its value is 0%.

And the pIC50?
The pIC50 was under 3.00.

What does the source list for Oc1ccc(Cl)cc1Cl [2,4-Dichlorophenol]?
Percent Cross Reactivity With PCP: 0%; pIC50: < 3.00

With Oc1cc(Cl)ccc1Cl [2,5-Dichlorophenol] as the compound, how does the “Percent Cross Reactivity With PCP” value read?
Its value is 0%.

What about the pIC50 of the same compound?
Its pIC50 is under 3.00.

Oc1c(Cl)cccc1Cl [2,6-Dichlorophenol] was tested. Which “Percent Cross Reactivity With PCP” value did it give?
Its value is 1.8%.

Oc1ccc(Cl)c(Cl)c1 [3,4-Dichlorophenol] was tested. Which “Percent Cross Reactivity With PCP” value did it give?
Its value is 0%.

What about the pIC50 of the same compound?
Its pIC50 is under 3.00.

What does the source list for Oc1cc(Cl)cc(Cl)c1 [3,5-Dichlorophenol]?
Percent Cross Reactivity With PCP: 0%; pIC50: < 3.00

For Oc1ccc(Cl)cc1 [4-Chlorophenol], which “Percent Cross Reactivity With PCP” value is on record?
The value was 0%.

What about the pIC50 of the same compound?
Its pIC50 is under 3.00.

Clc1cc(Cl)c(Cl)c(Cl)c1Cl [Pentachlorobenzene] was tested. Which “Percent Cross Reactivity With PCP” value did it give?
The value was 0%.

What about the “reaction with the antipentachlorophenol antibody” value of the same compound?
Its value is “fails to react”.

And the pIC50?
Its pIC50 is under 3.00.

Which results are given for Oc1ccccc1 [Phenol]?
Percent Cross Reactivity With PCP: 0%; pIC50: < 3.00

For Oc1c(Cl)c(Cl)c(O)c(Cl)c1Cl [Tetrachlorohydroquinone], which “Percent Cross Reactivity With PCP” value is on record?
The value was 0.8%.

— patent EP0260829A2 (priority 1986, dated 1988)
